Results on one substance are retold here after patent US20260183408A1, “POLYPEPTIDE AND USE THEREOF” (SHENZHEN CHENYANG BIOLOGICAL TECHNOLOGY CO., LTD, priority 2022, published 2026).

In one assay the test system is SPS mice. Put plainly: Corticosterone, cortisol, DA and 5-HT levels in hippocampus and cortex. Format: in vivo, mouse.
The subject of assay [1] is CRS mice. Put plainly: Open field test (OFT, time spent in the central area). Format: in vivo, mouse. The settings on record: single intraperitoneal 3 nmol/g, 1 hour later (FIG. 13). The method, then: (§1) The C57BL/6J mice were horizontally fixed for 6 h (from 10 to 16 o'clock) in a first acrylic restraint which is cylindrical and flat-bottomed (25×90 mm) every day for 2 weeks. The filter had several slots which could adapt to the size of each mouse to firmly restrain the mouse and inhibit body movements of the limb and trunk without causing pain. Immediately after being restrained, the mice were sent back to their cages. Unrestrained mice (control) stayed in their cages when no CRS procedure was performed. Neither the control mice nor the CRS mice could have access to food and water during the CRS exposure.
In order to evaluate the anti-anxiety-like effect of the polypeptide of the present invention, a CRS mouse model was established using the method in Example 6. The mice were treated with TAT or TAT-D2R-KL (single intraperitoneal administration at 3 nmol/g in both cases), and 1 hour later, an open field test (OFT) for testing the time spent in the central area and an elevated plus maze (EPM) test were performed. […]
OFT (for testing the time spent in the central area): The bottom of the open field was divided into 25 squares of equal area, with the 9 squares in the middle defined as the central area. One hour after the polypeptide treatment, the mice were placed in the central area to be recorded for 5 min, and the time spent in the central area by the mice was recorded.

Assay [2] relates to CRS mice. Description: Tail suspension test (TST). Format: in vivo, mouse. The settings on record: single intraperitoneal 3 nmol/g, 1 hour after treatment, compared with TAT-treated mice (FIG. 12). The method, then:
as §1
(§2) The C57BL/6J mice were subjected to various stress including restraint (for 4 h), cage tilting (for 45 times, with 12 h each time), light-dark cycle reversal (once), flash (for 12 h), and dirty cage (for 2 times, with 14 h each time). The protocol lasted 6 weeks. Control mice were not subjected to corresponding stress.
(§3) The mice were treated with TAT or TAT-D2R-KL (single intraperitoneal administration at 3 nmol/g in both cases). […]
TST: The mice were suspended with a tape to a position 40 cm above the floor within a rectangular compartment (length 55 cm× width 20 cm× depth 11.5 cm). A video was recorded for a total of 5 minutes, and the immobility time was recorded. […]

For another assay, the target named is T1, D2R/5-HT2CR complex (Homo sapiens, UniProt P28335).
T1 construct: host or cells: human 293T cells
T1 sequence (P28335 33-458): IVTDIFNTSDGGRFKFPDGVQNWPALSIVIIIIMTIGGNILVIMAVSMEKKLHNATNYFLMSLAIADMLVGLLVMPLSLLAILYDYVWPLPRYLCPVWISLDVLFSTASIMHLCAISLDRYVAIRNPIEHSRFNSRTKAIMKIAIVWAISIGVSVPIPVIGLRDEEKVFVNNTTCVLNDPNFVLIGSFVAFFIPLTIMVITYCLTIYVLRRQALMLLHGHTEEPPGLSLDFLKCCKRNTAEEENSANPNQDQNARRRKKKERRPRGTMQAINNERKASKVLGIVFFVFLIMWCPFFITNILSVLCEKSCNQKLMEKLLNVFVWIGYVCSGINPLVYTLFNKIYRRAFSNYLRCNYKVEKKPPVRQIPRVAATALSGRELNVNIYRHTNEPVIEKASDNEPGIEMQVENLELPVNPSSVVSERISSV
Description: Co-immunoprecipitation / Western blotting of polypeptide-treated 293T cells. Format: cell-based. The conditions noted are these: 293T cells transfected with 5-HT2CR and D2R, in the presence of 5-HT2CR and D2R agonists, TAT as control (FIG. 6). The protocol:
Co-immunoprecipitation was performed using protein samples (with 100-500 μg protein) from the hippocampal tissue of the Balb/c mice. Mouse monoclonal antibodies against both 5-HT2CR and D2R, D2R, or 5-HT2CR were used for precipitation with 25 μl of the slurry of protein A/G+agarose beads (SantaCruz Biotechnology, sc-2001).
Western blotting analysis after precipitation: Denatured (at 100° C. for 10 min) proteins were separated on an 8% SDS-PAGE gel, then transferred to a nitrocellulose membrane, which was then blocked with skim milk in TBST (Tris-buffered saline with 0.1% Tween 20). Next, incubation was carried out with the primary antibodies at 4° C. overnight. Finally, treatment with an HRP-conjugated secondary antibody were performed for 1 h, signals were detected using the ECL UltraSignal chemiluminescence kit (4A Biotech, cat. no. 4AW011-500), and the bands were analyzed for densities using the Image Lab software.
Next, the 293T cells were treated with TAT-D2R-KL in the presence of 5-HT2CR and D2R agonists, while treatment with TAT was used as a control. The specific process was shown in FIG. 5, where the human 293T cell line was cultured in a high-glucose modified Eagle's medium (DMEM) supplemented with 10% fetal bovine serum (FBS). The cells were maintained in an atmosphere of 95% air and 5% carbon dioxide in an incubator at 37° C. […]

Assay [3] relates to CRS mice. Put plainly: Forced swimming test (FST). Format: in vivo, mouse. The conditions noted are these: single intraperitoneal 3 nmol/g, 1 hour after treatment, compared with TAT-treated mice (FIG. 12). The protocol:
as §1, §2, §3
FST: The mice were placed in a cylinder (having a height of 70 cm and a diameter of 30 cm) made of organic glass and filled with water (with water temperature at 23±1° C.), wherein the water level was more than 30 cm from the bottom. The mice were recorded in video for 5 min, then the video was analyzed, and the immobility time was recorded. […]

Regarding “TAT-D2R-KL: C-terminus of the KL (K226-L240) region of D2R fused to the transduction domain of HIV-1 Tat protein (SEQ ID NO: 5)”, the level of cortisol result in the assay on SPS mice (hippocampus and cortex of SPS mice (FIG. 9)) was “did not significantly change”. Moreover, the “level of DA” value in the assay with SPS mice (hippocampus and cortex of SPS mice (FIG. 10)) is given as “did not significantly change”. Also, the elevated corticosterone level entry with SPS mice (hippocampus of SPS mice (FIG. 8)) is reported as “significantly reduced”. For the same substance, the “upregulated 5-HT” value in the assay with SPS mice (hippocampus of SPS mice (FIG. 11)) is listed as “did not reduce”. In the assay on CRS mice [1], the “time spent in the central area” value was “significantly increased”. For the same substance, in the assay with CRS mice [2], the “immobility time (TST)” value is reported as “significantly reduced”. Also, the “interaction between 5-HT2CR and D2R” value in the assay with D2R/5-HT2CR complex is given as “significantly reduced”. Besides, the “immobility time (FST)” value with CRS mice [3] is “significantly reduced”.
